According to patent US20220356174A1, “PYRIDIN-2-ONE COMPOUNDS USEFUL AS SMARCA2 ANTAGONISTS” (Epizyme, Inc., priority 2018, published 2022):
Like-named read-outs stand apart in the source and are kept apart here.

How the values were obtained:
SMARCA2 = biological target: T1, SMARCA2 (Homo sapiens, UniProt P51531); assay: SMARCA2 FRET nucleosome remodeling activity assay; type: biochemical
T1 construct: FLAG tag (YKDDDDK) (C); made in house; host or cells: Sf21 insect cells (baculovirus, pFastBacI)
T1 sequence (P51531 with tags, fused parts or gaps): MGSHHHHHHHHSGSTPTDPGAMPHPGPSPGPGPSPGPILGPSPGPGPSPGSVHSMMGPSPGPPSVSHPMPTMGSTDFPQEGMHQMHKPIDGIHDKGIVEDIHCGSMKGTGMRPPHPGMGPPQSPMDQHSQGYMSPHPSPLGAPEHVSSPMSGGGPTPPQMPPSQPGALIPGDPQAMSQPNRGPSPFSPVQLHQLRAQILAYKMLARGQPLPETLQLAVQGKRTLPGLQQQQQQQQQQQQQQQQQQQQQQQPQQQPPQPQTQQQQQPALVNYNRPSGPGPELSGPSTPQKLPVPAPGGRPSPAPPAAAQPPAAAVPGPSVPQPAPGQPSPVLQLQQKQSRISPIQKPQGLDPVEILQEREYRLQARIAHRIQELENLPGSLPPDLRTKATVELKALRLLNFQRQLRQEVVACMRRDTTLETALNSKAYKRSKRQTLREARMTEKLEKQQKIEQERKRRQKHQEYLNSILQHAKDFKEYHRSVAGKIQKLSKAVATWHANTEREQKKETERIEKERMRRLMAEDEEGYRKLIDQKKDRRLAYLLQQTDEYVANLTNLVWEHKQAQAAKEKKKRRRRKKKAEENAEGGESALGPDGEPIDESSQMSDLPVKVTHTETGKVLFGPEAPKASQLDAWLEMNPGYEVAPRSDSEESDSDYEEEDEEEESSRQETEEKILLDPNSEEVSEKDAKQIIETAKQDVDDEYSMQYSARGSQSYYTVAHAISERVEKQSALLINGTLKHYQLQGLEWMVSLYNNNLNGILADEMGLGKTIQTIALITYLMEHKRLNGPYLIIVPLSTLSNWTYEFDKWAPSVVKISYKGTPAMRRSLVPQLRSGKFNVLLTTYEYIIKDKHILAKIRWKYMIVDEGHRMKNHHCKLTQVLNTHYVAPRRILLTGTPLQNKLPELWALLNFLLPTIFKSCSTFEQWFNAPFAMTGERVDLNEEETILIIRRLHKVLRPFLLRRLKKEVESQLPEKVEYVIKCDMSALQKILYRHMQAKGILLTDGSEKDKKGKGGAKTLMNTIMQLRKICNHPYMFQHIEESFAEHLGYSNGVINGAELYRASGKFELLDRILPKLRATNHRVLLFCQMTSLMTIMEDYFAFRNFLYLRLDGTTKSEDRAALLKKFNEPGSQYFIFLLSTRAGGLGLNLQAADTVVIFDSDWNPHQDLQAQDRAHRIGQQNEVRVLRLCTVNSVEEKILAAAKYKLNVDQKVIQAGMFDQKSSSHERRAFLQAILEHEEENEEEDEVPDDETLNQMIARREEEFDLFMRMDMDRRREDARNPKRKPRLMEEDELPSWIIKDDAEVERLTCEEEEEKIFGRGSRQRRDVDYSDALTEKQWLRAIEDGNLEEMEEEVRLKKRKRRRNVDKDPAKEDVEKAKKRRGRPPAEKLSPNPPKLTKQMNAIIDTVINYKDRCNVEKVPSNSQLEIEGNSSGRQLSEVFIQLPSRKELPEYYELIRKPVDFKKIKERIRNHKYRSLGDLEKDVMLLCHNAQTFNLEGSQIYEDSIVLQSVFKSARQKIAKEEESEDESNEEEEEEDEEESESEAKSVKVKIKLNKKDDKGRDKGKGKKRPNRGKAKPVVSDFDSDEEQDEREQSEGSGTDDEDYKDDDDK
Experimental: The SMARCA2 remodeling assay was initiated by the addition of 2 uL of a nucleosome remodeling assay substrate and ATP mixture (final volume=10 uL). […] The assays were terminated after 15 minutes by the addition of 2 uL EDTA (final concentration of 25 mM). The SMARCA2 remodeling activity was determined by measuring the fluorescence ratio of the Cy3 and Cy5 labels ([…]). The remodeling of the nucleosome substrate causes an increase in the spacing between the Cy3 and Cy5 labels and therefore a reduction in FRET and an increase in Cy3/Cy5 fluorescence ratio.

FL-SMARCA4 = FL-SMARCA4 (Homo sapiens, UniProt P51532); assay: SMARCA4 ATPase activity assay (ADP-Glo, chicken mononucleosome substrate)
FL-SMARCA4, sequence (P51532 whole entry, canonical isoform): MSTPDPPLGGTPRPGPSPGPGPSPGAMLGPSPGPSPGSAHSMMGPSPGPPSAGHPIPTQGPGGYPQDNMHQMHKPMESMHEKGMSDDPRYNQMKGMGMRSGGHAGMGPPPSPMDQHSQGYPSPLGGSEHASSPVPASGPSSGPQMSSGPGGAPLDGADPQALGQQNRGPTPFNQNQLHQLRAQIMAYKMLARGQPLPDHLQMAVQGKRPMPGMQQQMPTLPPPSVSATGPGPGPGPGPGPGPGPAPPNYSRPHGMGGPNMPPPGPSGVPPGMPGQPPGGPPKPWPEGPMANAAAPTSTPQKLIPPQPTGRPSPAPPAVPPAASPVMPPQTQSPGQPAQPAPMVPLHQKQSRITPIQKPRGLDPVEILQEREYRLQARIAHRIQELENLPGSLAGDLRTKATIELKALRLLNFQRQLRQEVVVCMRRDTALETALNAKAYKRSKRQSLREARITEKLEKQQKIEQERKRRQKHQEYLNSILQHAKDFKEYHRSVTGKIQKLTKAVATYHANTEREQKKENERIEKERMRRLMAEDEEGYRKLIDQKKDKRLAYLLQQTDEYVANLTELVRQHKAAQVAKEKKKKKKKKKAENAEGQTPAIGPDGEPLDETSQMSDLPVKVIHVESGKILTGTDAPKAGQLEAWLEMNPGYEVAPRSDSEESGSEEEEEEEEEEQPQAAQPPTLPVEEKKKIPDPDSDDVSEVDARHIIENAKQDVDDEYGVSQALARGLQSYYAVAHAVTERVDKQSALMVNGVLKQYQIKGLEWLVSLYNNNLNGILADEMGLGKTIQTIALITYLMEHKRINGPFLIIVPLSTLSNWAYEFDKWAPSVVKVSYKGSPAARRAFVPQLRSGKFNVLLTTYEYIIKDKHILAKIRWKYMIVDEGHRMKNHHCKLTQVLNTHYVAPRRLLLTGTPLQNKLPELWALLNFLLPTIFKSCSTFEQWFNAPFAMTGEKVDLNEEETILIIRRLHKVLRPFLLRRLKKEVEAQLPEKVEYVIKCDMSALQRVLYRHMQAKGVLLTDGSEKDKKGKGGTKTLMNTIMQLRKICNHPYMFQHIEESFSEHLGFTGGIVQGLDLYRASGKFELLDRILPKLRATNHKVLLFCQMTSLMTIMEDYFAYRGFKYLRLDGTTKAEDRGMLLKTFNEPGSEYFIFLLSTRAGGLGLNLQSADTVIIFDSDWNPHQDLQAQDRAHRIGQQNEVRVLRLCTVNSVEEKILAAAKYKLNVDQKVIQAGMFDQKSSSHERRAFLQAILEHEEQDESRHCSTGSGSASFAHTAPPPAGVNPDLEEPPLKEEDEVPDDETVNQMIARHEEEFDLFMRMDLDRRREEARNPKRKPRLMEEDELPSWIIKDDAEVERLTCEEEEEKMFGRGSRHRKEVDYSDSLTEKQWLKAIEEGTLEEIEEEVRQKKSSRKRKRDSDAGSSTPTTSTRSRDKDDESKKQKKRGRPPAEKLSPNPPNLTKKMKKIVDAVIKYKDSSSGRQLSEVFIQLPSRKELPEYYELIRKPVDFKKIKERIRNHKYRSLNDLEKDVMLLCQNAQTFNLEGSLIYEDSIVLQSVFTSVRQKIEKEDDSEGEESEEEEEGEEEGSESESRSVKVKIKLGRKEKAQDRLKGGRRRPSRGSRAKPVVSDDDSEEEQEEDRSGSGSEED

[1] = biological target: T2, FL-SMARCA2 (full-length human SMARCA2 isoform 1) (Homo sapiens, UniProt P51531); assay: SMARCA2 ATPase activity assay (ADP-Glo, chicken mononucleosome substrate); type: biochemical; settings: ATPase assay, enzyme 5 nM, ATP 250 uM, chicken mononucleosome 10 nM, 30 min preincubation
T2 construct: FLAG tag (YKDDDDK) (C); made in house; host or cells: Sf21 insect cells (baculovirus, pFastBacI)
T2 sequence (P51531 with tags, fused parts or gaps): as the sequence (P51531 with tags, fused parts or gaps) above

A549 cells = assay: High-throughput proliferation (HTP) assay for A549 cells (CellTiter-Glo, 7 days); type: cell-based; settings: Homo sapiens, 168 h, read-out: A549 SMARCA2 IC50
Outline: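 A549 cells plated at 62.5 cells/well in F12K + 10% HI-FBS onto pre-dispensed compound, grown 7 days at 37° C., 5% CO2. Viability by CellTiter-Glo luminescence after 30 min at RT; EC50/IC50 from DMSO (0%) and 10 μM Doxorubicin (100%) inhibition controls.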

H358 cells = assay: High-throughput proliferation (HTP) assay for H358 cells (CellTiter-Glo, 7 days); type: cell-based; settings: Homo sapiens, NCI-H358, 168 h, read-out: H358 SMARCA2 IC50
Outline: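 Cells were plated at 1,000 cells/well in RPMI 1640 + 10% HI-FBS + 1% pen/strep on pre-dispensed compound and incubated 7 days at 37 °C, 5% CO2. Viability was read as ATP luminescence with CellTiter-Glo after 30 min at RT. DMSO served as 0% and 10 µM doxorubicin as 100% inhibition for EC50/IC50.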

[2] = FL-SMARCA4 IC50, Table 3.2, ATPase assay, enzyme 5 nM, ATP 250 uM, chicken mononucleosome 10 nM, 30 min preincubation
[3] = Table 3d.1, read-out: FL-SMARCA2 IC>50

Row | IC50 (SMARCA2) [nM] | IC50 (FL-SMARCA4; [2]) [nM] | IC50 ([1]; Table 3.1) [nM] | IC50 (A549 cells) [nM] | IC50 (H358 cells) [nM] | IC50 (FL-SMARCA4; FL-SMARCA4 IC50) [nM] | IC50 [1, 3] [nM] | IC50 (FL-SMARCA4; FL-SMARCA4 IC>50, Table 3c.2, ATPase assay, enzyme 5 nM, ATP 250 uM, chicken mononucleosome 10 nM, 30 min preincubation) [nM] | IC50 ([1]; Table 3c.1) [nM] | SMILES
1 | 21.7 | 94.8 | 26.6 | – | – | – | – | – | – | CCn1cc(NC(=O)c2cnc(C#N)s2)cc(F)c1=O [Compound 150]
2 | 23.4 | 33.7 | 9.09 | 9690 | – | – | – | – | – | N#Cc1cc(C(=O)Nc2cc(F)c(=O)n(CCF)c2)sc1C#N [Compound 189]
3 | 407 | 680 | 136 | – | – | – | – | – | – | O=C(Nc1cc(F)c(=O)n(CCF)c1)c1cc(Cl)c(C(F)F)s1 [Compound 290]
4 | 9.22 | 86.8 | 27.2 | 934 | – | – | – | – | – | N#Cc1sc(C(=O)Nc2cc(F)c(=O)n(CC(F)F)c2)cc1Cl [Compound 285]
5 | 22.2 | – | 12.7 | ≥ 20000 | – | – | – | – | – | N#Cc1ncc(C(=O)Nc2cc(Cl)c(=O)n(CCF)c2)s1 [Compound 148]
6 | 28.8 | 67.4 | 20.4 | – | – | – | – | – | – | N#Cc1ncc(C(=O)Nc2cc(F)c(=O)n(CC(F)(F)F)c2)s1 [Compound 151, 2-Cyano-N-(5-fluoro-6-oxo-1-(2,2,2-trifluoroethyl)-1,6-dihydropyridin-3-yl)thiazole-5-carboxamide]
7 | 168 | 331 | 121 | – | – | – | – | – | – | O=C(Nc1cc(F)c(=O)n(CC(F)(F)F)c1)c1cnc(Cl)s1 [Compound 143]
8 | 5060 | 12000 | 3010 | – | – | – | – | – | – | O=C(Nc1ccc(=O)n(CC(F)(F)F)c1)c1cc(Cl)n[nH]1 [Compound 145]
9 | 1270 | 1170 | 245 | – | – | – | – | – | – | Cn1c(C(=O)Nc2cc(F)c(=O)n(CC(F)(F)F)c2)cc(Cl)c1Cl [Compound 144]
10 | 499 | 736 | 173 | – | – | – | – | – | – | O=C(Nc1cc(F)c(=O)n(CCF)c1)c1cnc(C(F)F)s1 [Compound 295]

Continued, molecule first:

Row | SMILES | IC50 (SMARCA2) [nM] | IC50 (FL-SMARCA4; [2]) [nM] | IC50 ([1]; Table 3.1) [nM] | IC50 (A549 cells) [nM] | IC50 (H358 cells) [nM] | IC50 (FL-SMARCA4; FL-SMARCA4 IC50) [nM] | IC50 [1, 3] [nM] | IC50 (FL-SMARCA4; FL-SMARCA4 IC>50, Table 3c.2, ATPase assay, enzyme 5 nM, ATP 250 uM, chicken mononucleosome 10 nM, 30 min preincubation) [nM] | IC50 ([1]; Table 3c.1) [nM]
11 | O=C(Nc1cc(F)c(=O)n(CC(F)(F)F)c1)c1cc(Cl)c(Cl)s1 [Compound 141] | 399 | 352 | 94.1 | – | – | – | – | – | –
12 | CCn1cc(NC(=O)c2cc(Cl)c(C#N)s2)cc(F)c1=O [Compound 128] | 223 | 161 | 78.7 | – | – | – | – | – | –
13 | CCn1cc(NC(=O)c2cc(Cl)c(Cl)n2C)ccc1=O [Compound 1] | 7120 | 39600 | 2720 | – | – | – | – | – | –
14 | N#Cc1sc(C(=O)Nc2cc(Cl)c(=O)n(CC(F)(F)F)c2)cc1Cl [Compound 131] | 171 | 303 | 113 | – | – | – | – | – | –
15 | CCn1cc(NC(=O)c2cnc(C#N)s2)cc(Cl)c1=O [Compound 136] | 28.8 | 184 | 57.7 | – | – | – | – | – | –
16 | N#Cc1ncc(C(=O)Nc2cc(Cl)c(=O)n(CC(F)(F)F)c2)s1 [Compound 137] | 29 | 111 | 26 | – | – | – | – | – | –
17 | O=C(Nc1cc(F)c(=O)n(CC(F)F)c1)c1cc(C#CC2CCn3cnnc3C2)c(Cl)s1 (stereo not shown) [Compound 119d] | – | – | – | > 10000 | > 10000 | 2220 | 961 | – | –
18 | O=C(Nc1cc(F)c(=O)n(CC(F)F)c1)c1cc(-c2ccco2)on1 [Compound 124d] | – | – | – | > 10000 | > 10000 | > 50000 | > 50000 | – | –
19 | O=C(Nc1cc(F)c(=O)n(CC(F)F)c1)c1cc(C#C[C@H]2CCC[C@H](O)C2)c(Cl)s1 [Compound 129d] | – | – | – | 2170 | > 10000 | 161 | 58.4 | – | –
20 | O=C(Nc1ccc(=O)n(CC(F)F)c1)c1cc(Cl)c(C(F)(F)F)s1 [Compound 72c] | – | – | – | 4500 | > 10000 | – | – | 1550 | 210
21 | O=C(Nc1cc(F)c(=O)n(CC(F)F)c1)c1cc(C#CC2CNCCO2)c(Cl)s1 (stereo not shown) [Compound 109d] | – | – | – | > 10000 | > 10000 | 3160 | 1060 | – | –
